Measurements: PubChem BioAssay AID248 (DTP/NCI, 2004)
Values joined by “and” are separate entries in the source; they are usually repeats but may differ in a detail not shown here. Identical values can stand only once. Inconclusive results and toxic doses are left out. Cut-off read from the data, not from the text of the source: active = T/C of 150% or more; inactive = T/C below 125%.

System: L1210 leukemia ip in BDF1 mice, survival T/C
Assay: NCI In Vivo Anticancer Drug Screen. Data for tumor model L1210 Leukemia (intraperitoneal) in B6D2F1 (BDF1) mice
Conditions: endpoint: mean survival time, higher = longer survival
Outline: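 Tumor cells were implanted, animals were treated, and survival was followed. The result divides the treated measurement by the vehicle-control measurement.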

[1] = dose: 25.0 mg/kg/injection, schedule: Q01DX009 (ip), vehicle: Klucel (hydroxypropylcellulose) (HPC)
[2] = dose: 50.0 mg/kg/injection, schedule: Q01DX009 (ip), vehicle: Klucel (hydroxypropylcellulose) (HPC)
[3] = dose: 100.0 mg/kg/injection, schedule: Q01DX001 (ip), vehicle: Klucel (hydroxypropylcellulose) (HPC)
[4] = dose: 100.0 mg/kg/injection, schedule: Q01DX009 (ip), vehicle: Klucel (hydroxypropylcellulose) (HPC)
[5] = dose: 200.0 mg/kg/injection, schedule: Q01DX001 (ip), vehicle: Klucel (hydroxypropylcellulose) (HPC)
[6] = dose: 200.0 mg/kg/injection, schedule: Q01DX009 (ip), vehicle: Klucel (hydroxypropylcellulose) (HPC)
[7] = dose: 100.0 mg/kg/injection, schedule: Q04DX002 (ip), vehicle: saline with Tween-80
[8] = dose: 200.0 mg/kg/injection, schedule: Q04DX002 (ip), vehicle: saline with Tween-80
[9] = dose: 50.0 mg/kg/injection, schedule: Q01DX009 (ip), vehicle: saline with Tween-80
[10] = dose: 100.0 mg/kg/injection, schedule: Q01DX009 (ip), vehicle: saline with Tween-80
[11] = dose: 100.0 mg/kg/injection, schedule: Q04DX003 (ip), vehicle: saline with Tween-80
[12] = dose: 200.0 mg/kg/injection, schedule: Q01DX009 (ip), vehicle: saline with Tween-80
[13] = dose: 200.0 mg/kg/injection, schedule: Q04DX003 (ip), vehicle: saline with Tween-80
[14] = dose: 25.0 mg/kg/injection, schedule: Q01DX009 (ip), vehicle: saline with Tween-80

Measured: T/C

CCOC(=O)C1(C(C)C)OC2(O)C3CCCN3C(=O)C(C(C)C)N2C1=O (configuration not stated)
inactive: dose: 3.12 mg/kg/injection, schedule: Q03HX024 (ip), vehicle: Klucel (hydroxypropylcellulose) (HPC) 98 % of control | dose: 6.25 mg/kg/injection, schedule: Q03HX024 (ip), vehicle: Klucel (hydroxypropylcellulose) (HPC) 97 % of control | dose: 8.25 mg/kg/injection, schedule: Q01DX009 (ip), vehicle: Klucel (hydroxypropylcellulose) (HPC) 97 % of control | dose: 12.5 mg/kg/injection, schedule: Q01DX009 (ip), vehicle: Klucel (hydroxypropylcellulose) (HPC) 98 % of control | dose: 12.5 mg/kg/injection, schedule: Q03HX024 (ip), vehicle: Klucel (hydroxypropylcellulose) (HPC) 98 % of control | dose: 16.5 mg/kg/injection, schedule: Q01DX009 (ip), vehicle: Klucel (hydroxypropylcellulose) (HPC) 99 % of control | dose: 25.0 mg/kg/injection, schedule: Q01DX001 (ip), vehicle: Klucel (hydroxypropylcellulose) (HPC) 95 % of control | [1] 109 % of control | dose: 25.0 mg/kg/injection, schedule: Q03HX024 (ip), vehicle: Klucel (hydroxypropylcellulose) (HPC) 100 % of control | dose: 25.0 mg/kg/injection, schedule: Q04DX003 (ip), vehicle: alcohol 97 % of control | dose: 33.0 mg/kg/injection, schedule: Q01DX009 (ip), vehicle: Klucel (hydroxypropylcellulose) (HPC) 100 % of control | dose: 50.0 mg/kg/injection, schedule: Q01DX001 (ip), vehicle: Klucel (hydroxypropylcellulose) (HPC) 101 % of control | [2] 105 % of control | dose: 50.0 mg/kg/injection, schedule: Q03HX024 (ip), vehicle: Klucel (hydroxypropylcellulose) (HPC) 93 % of control | dose: 50.0 mg/kg/injection, schedule: Q04DX003 (ip), vehicle: alcohol 106 % of control | dose: 66.0 mg/kg/injection, schedule: Q01DX009 (ip), vehicle: Klucel (hydroxypropylcellulose) (HPC) 98 % of control | [3] 95 % of control | [4] 100 % of control | dose: 100.0 mg/kg/injection, schedule: Q04DX003 (ip), vehicle: alcohol 96 % of control | [5] 104 % of control | [6] 98 % of control | dose: 200.0 mg/kg/injection, schedule: Q04DX003 (ip), vehicle: alcohol 98 % of control

O=CNc1cc(Cl)cc(Cl)c1
inactive: [1] 97 % of control | [2] 94 % of control | [4] 114 % of control

CCS(=O)(=O)C1C2CCC(O2)C1S(=O)(=O)CC (configuration not stated)
inactive: dose: 100.0 mg/kg/injection, schedule: Q04DX002 (ip), vehicle: Klucel (hydroxypropylcellulose) (HPC) 94 % of control | dose: 200.0 mg/kg/injection, schedule: Q04DX002 (ip), vehicle: Klucel (hydroxypropylcellulose) (HPC) 101 % of control | dose: 400.0 mg/kg/injection, schedule: Q04DX002 (ip), vehicle: Klucel (hydroxypropylcellulose) (HPC) 90 % of control

CCCCC(CCC)CCC
inactive: [7] 103 % of control | [8] 94 % of control | dose: 400.0 mg/kg/injection, schedule: Q04DX002 (ip), vehicle: saline with Tween-80 106 % of control

O=C(NC(=S)Nc1ccccn1)c1ccccc1
inactive: dose: 25.0 mg/kg/injection, schedule: Q04DX002 (ip), vehicle: other 102 % of control | dose: 50.0 mg/kg/injection, schedule: Q04DX002 (ip), vehicle: other 100 % of control | dose: 100.0 mg/kg/injection, schedule: Q04DX002 (ip), vehicle: other 105 % of control | dose: 200.0 mg/kg/injection, schedule: Q04DX002 (ip), vehicle: other 86 % of control

N#CC(C#N)=CN
inactive: [3] 105 % of control | [5] 106 % of control | dose: 400.0 mg/kg/injection, schedule: Q01DX001 (ip), vehicle: Klucel (hydroxypropylcellulose) (HPC) 101 % of control

CCOC(=O)c1cnc(NN)nc1NCc1ccccc1
inactive: [9] 93 % of control | [10] 89 % of control | [11] 87 % of control | [12] 98 % of control | [13] 96 % of control

Cc1cc2c(C)c3cc(C)c(C)c(C)c3cc2c(C)c1C
inactive: dose: 25.0 mg/kg/injection, schedule: Q01DX005 (ip), vehicle: water 114 % of control | dose: 50.0 mg/kg/injection, schedule: Q01DX005 (ip), vehicle: water 94 % of control | dose: 100.0 mg/kg/injection, schedule: Q01DX005 (ip), vehicle: water 94 % of control and 97 % of control | dose: 200.0 mg/kg/injection, schedule: Q01DX005 (ip), vehicle: water 96 % of control | dose: 400.0 mg/kg/injection, schedule: Q01DX005 (ip), vehicle: water 100 % of control

O=C1c2ccccc2C(=O)N1CCCCCCN1C(=O)c2ccccc2C1=O
inactive: dose: 100.0 mg/kg/injection, schedule: Q04DX002 (ip), vehicle: gum acacia 96 % of control | dose: 200.0 mg/kg/injection, schedule: Q04DX002 (ip), vehicle: gum acacia 107 % of control | dose: 400.0 mg/kg/injection, schedule: Q04DX002 (ip), vehicle: gum acacia 101 % of control

CNC(=O)C(=O)NCCCN1CC1
inactive: dose: 12.5 mg/kg/injection, schedule: Q04DX003 (ip), vehicle: Klucel (hydroxypropylcellulose) (HPC) 114 % of control | dose: 25.0 mg/kg/injection, schedule: Q04DX003 (ip), vehicle: Klucel (hydroxypropylcellulose) (HPC) 104 % of control

CNC(=S)N/N=C/c1ccc(OC)c(OC)c1OC
inactive: [4] 102 % of control | [6] 120 % of control | dose: 400.0 mg/kg/injection, schedule: Q01DX009 (ip), vehicle: Klucel (hydroxypropylcellulose) (HPC) 98 % of control

CC1=C(O)C(=O)C=C2C1=CC=C1[C@@]2(C)CC[C@@]2(C)[C@@H]3C[C@](C)(C(=O)O)CC[C@]3(C)CC[C@]12C
inactive: dose: 5.0 mg/kg/injection, schedule: Q01DX001 (ip), vehicle: carboxymethylcellulose (CMC) 95 % of control and 100 % of control | dose: 10.0 mg/kg/injection, schedule: Q01DX001 (ip), vehicle: carboxymethylcellulose (CMC) 97 % of control | dose: 20.0 mg/kg/injection, schedule: Q01DX001 (ip), vehicle: carboxymethylcellulose (CMC) 103 % of control and 89 % of control | dose: 40.0 mg/kg/injection, schedule: Q01DX001 (ip), vehicle: carboxymethylcellulose (CMC) 122 % of control

CCOC(=O)/C=C(/C)Nc1ccc(SC)cc1
inactive: [10] 100 % of control | [12] 96 % of control | dose: 400.0 mg/kg/injection, schedule: Q01DX009 (ip), vehicle: saline with Tween-80 100 % of control

Cc1ccccc1C=O
inactive: dose: 50.0 mg/kg/injection, schedule: Q01DX001 (ip), vehicle: saline 97 % of control | dose: 100.0 mg/kg/injection, schedule: Q01DX001 (ip), vehicle: saline 94 % of control | dose: 200.0 mg/kg/injection, schedule: Q01DX001 (ip), vehicle: saline 94 % of control | dose: 400.0 mg/kg/injection, schedule: Q01DX001 (ip), vehicle: saline 94 % of control

C[CH2][Ge]1([CH2]C)[CH2]C(C)=C(C)[CH2]1
inactive: [7] 95 % of control | [8] 95 % of control

Oc1ccc(N=C/C=C/c2ccccc2)cc1
inactive: dose: 100.0 mg/kg/injection, schedule: Q01DX001 (ip), vehicle: carboxymethylcellulose (CMC) 86 % of control | dose: 200.0 mg/kg/injection, schedule: Q01DX001 (ip), vehicle: carboxymethylcellulose (CMC) 89 % of control | dose: 400.0 mg/kg/injection, schedule: Q01DX001 (ip), vehicle: carboxymethylcellulose (CMC) 91 % of control

CC(C)NC(=O)N(c1ccccc1)C(C)C
inactive: [11] 98 % of control | [13] 89 % of control | dose: 400.0 mg/kg/injection, schedule: Q04DX003 (ip), vehicle: saline with Tween-80 89 % of control

OC1c2ccccc2-c2ccc(Cl)cc21 (configuration not stated)
inactive: [14] 97 % of control | [9] 106 % of control | [10] 100 % of control and 90 % of control

CCOC(=O)C1CC2CCC1CC2 (configuration not stated)
inactive: dose: 25.0 mg/kg/injection, schedule: Q01DX005 (ip), vehicle: saline with Tween-80 92 % of control | [14] 102 % of control | dose: 25.0 mg/kg/injection, schedule: Q04DX002 (ip), vehicle: saline with Tween-80 106 % of control | dose: 50.0 mg/kg/injection, schedule: Q01DX005 (ip), vehicle: saline with Tween-80 92 % of control | [9] 94 % of control | dose: 50.0 mg/kg/injection, schedule: Q04DX002 (ip), vehicle: saline with Tween-80 94 % of control | dose: 100.0 mg/kg/injection, schedule: Q01DX005 (ip), vehicle: saline with Tween-80 89 % of control | [10] 109 % of control | [7] 97 % of control and 103 % of control
